Assay results reported in US8133871B2, “Dihydropseudoerythromycin derivatives” (The Kitasato Institute, priority 2005, dated 2012).

Columns and labels:
[1] = system: trinitrobenzene sulfonate (TNBS)-induced colitis; test: TNBS-induced colitis in rats, damage of the large intestine scored by the method of Wallace et al.; type: in vivo; conditions: rat TNBS colitis, oral, control 4.27 ± 0.38
Description: As an index of the treatment effect of the compound of the present invention on ulcerative colitis and Crohn's disease, an action on trinitrobenzene sulfonate (hereinafter to be indicated as TNBS)-induced colitis was examined using rats. Using 8-week-old male SD rats under pentobarbital anesthesia, TNBS solution was injected into the rectum of animals after fasting for 24 hr or longer and abstaining from water for 5 hr or longer. After injection, a silicone stopper was inserted into the anus to perform a treatment for 3.5-4 hr, whereby a colitis model was prepared. Two days after TNBS administration, model animals were selected based on the fecal occult blood score (fecal occult blood slide 5 shionogi II, Shionogi & Co. Ltd.), body weight and body weight changes, feeding condition, observation score of around anus and bleeding. A test drug was orally administered to the model animals two times a day for 6 days. On the next day of the final drug administration, the large intestine (about 15 cm from the anus) was removed after decapitation and exsanguination, and the level of damage was scored by the method of Wallace et al. (Wallace, J. L. et al, Inhibition of leukotriene synthesis markedly accelerates healing in a rat model of inflammatory bowel disease. Gastroenterology 96, 2936 (1989)), based on which the efficacy was evaluated.

THP-1 cells = test: THP-1 differentiation induction-promoting activity; type: cell-based; conditions: Homo sapiens, THP-1; lowest concentration necessary to show 50% activity relative to the activity value of erythromycin A at 100 μM; PMA 1-2 μM, 72-96 hr
Description: As one index of the anti-inflammatory action of the compound of the present invention, the differentiation induction-promoting activity of THP-1 cell was measured. The measurement was performed as shown below.
THP-1 cells (ATCC No. TIB-202) were adjusted to a concentration of 2×10^5 cells/ml with a medium (RPMI 1640), PMA was added thereto to a final concentration of 1-2 μM, and the mixture was dispensed to each well of a 96 well plate by 100 μl. A solution (100 μl) containing a test substance was adjusted to an appropriate concentration with the medium and added to each well. The mixture was stirred by gently shaking the plate, and incubated under 37° C., 5% CO2 conditions for 72-96 hr. Each well was washed with PBS, a medium containing the viable cell measurement reagent SF (Nacalai Tesque) was added at 100 μl/well and the mixture was incubated under the conditions of 37° C., 5% CO2 for 3-5 hr. The absorbance was measured with a plate reader.
In the Table, the activity value is the lowest concentration necessary for the test compound to show a 50% activity value relative to the activity value of erythromycin A at 100 μM in this experiment.
THP-1 differentiation induction-promoting activity: The lowest concentration necessary for each compound to show 50% activity relative to the activity value of erythromycin A at 100 μM.

E. aerogen NCTC10006 = test: antibacterial activity, MIC (NCCLS method); type: cell-based
Description: (§1) The antibacterial activity of the compound of the present invention and erythromycin were measured according to the antibacterial sensitivity measurement method of the US National Committee for Clinical Laboratory Standards (NCCLS). The values of minimum inhibitory concentration (MIC) (μg/ml) of each compound against bacteria are shown therein.

E. coli NIHJ JC-2 = test: antibacterial activity, MIC (NCCLS method); type: cell-based; conditions: Escherichia coli, NIHJJC2
Description: as §1

S. aureus FDA209P = test: antibacterial activity, MIC (NCCLS method); type: cell-based; conditions: Staphylococcus aureus, FDA209P
Description: as §1

S. aureus 8325 (pEP2104) = test: antibacterial activity, MIC (NCCLS method); type: cell-based; conditions: Staphylococcus aureus
Description: as §1

A. calcoaceticus IFO2552 = test: antibacterial activity, MIC (NCCLS method); type: cell-based; conditions: Acinetobacter calcoaceticus, IFO2552
Description: as §1

K. pneumoniae NCTN9632 = test: antibacterial activity, MIC (NCCLS method); type: cell-based; conditions: Klebsiella pneumoniae, NCTN9632
Description: as §1

E. faecalis ATCC21212 = test: antibacterial activity, MIC (NCCLS method); type: cell-based; conditions: Enterococcus faecalis, ATCC21212
Description: as §1

M. luteus ATCC9341 = test: antibacterial activity, MIC (NCCLS method); type: cell-based; conditions: Micrococcus luteus, ATCC9341
Description: as §1

S. aureus Smith = test: antibacterial activity, MIC (NCCLS method); type: cell-based; conditions: Staphylococcus aureus
Description: as §1

S. marcescens IFO12648 = test: antibacterial activity, MIC (NCCLS method); type: cell-based; conditions: Serratia marcescens, IFO12648
Description: as §1

S. epidermidis IFO12648 = test: antibacterial activity, MIC (NCCLS method); type: cell-based; conditions: Staphylococcus epidermidis, IFO12648
Description: as §1

[2] = dose 10 × 2 (mg/kg)/day for 6 days
[3] = dose 30 × 2 (mg/kg)/day for 6 days

SMILES | Inflammation score in ulcer [1, 2] | Inflammation score in ulcer [1, 3] | minimal effective concentration (THP-1 cells) | MIC (E. aerogen NCTC10006) | MIC (E. coli NIHJ JC-2) | MIC (S. aureus FDA209P) | MIC (S. aureus 8325 (pEP2104)) | MIC (A. calcoaceticus IFO2552) | MIC (K. pneumoniae NCTN9632) | MIC (E. faecalis ATCC21212) | MIC (M. luteus ATCC9341) | MIC (S. aureus Smith) | MIC (S. marcescens IFO12648) | MIC (S. epidermidis IFO12648)
CC[C@@H](O)[C@@](C)(O)[C@@H]1OC(=O)[C@H](C)[C@@H](O[C@H]2CC(C)(OC)[C@@H](O)C(C)O2)[C@H](C)[C@H](O[C@@H]2OC(C)CC(N(C)Cc3ccc(Cl)cc3)C2O)[C@@]2(C)CC(C)C(O2)[C@@H]1C (some centres unmarked) [EM905, de(3′-N-methyl)-3′-N-(p-chlorobenzyl)-9-dihydro-pseudoerythromycin A 6,9-epoxide] | 3.29 ± 0.22 | 2.67 ± 0.40 | 3 µM | > 128 µg/mL | > 128 µg/mL | > 128 µg/mL | > 128 µg/mL | > 128 µg/mL | > 128 µg/mL | > 128 µg/mL | > 128 µg/mL | > 128 µg/mL | > 128 µg/mL | > 128 µg/mL
CC[C@@H](O)[C@@](C)(O)[C@@H]1OC(=O)[C@H](C)[C@@H](O[C@H]2CC(C)(OC)[C@@H](O)C(C)O2)[C@H](C)[C@@H](O[C@@H]2OC(C)CC(N3CCOCC3)C2O)[C@]2(C)CC(C)C(O2)[C@@H]1C (some centres unmarked) [EM914, de(3′-dimethylamino)-3′-morpholino-9-dihydro-pseudoerythromycin A 6,9-epoxide] | 2.93 ± 0.41 | 2.69 ± 0.33 | 100 µM | > 128 µg/mL | > 128 µg/mL | > 128 µg/mL | > 128 µg/mL | > 128 µg/mL | > 128 µg/mL | > 128 µg/mL |  | > 128 µg/mL | > 128 µg/mL | 
